# According to patent US8586611B2 (priority 2005, dated 2013):
# Columns and labels:
# Assay type in all cases: in vivo
# Plasmopara viticola = assay: Test B: grape downy mildew, spray 24 h after inoculation (disease rating, 100 = 100% disease control); settings: spray 24 h after inoculation
# In short: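 Grape seedlings were inoculated with Plasmopara viticola and held 24 h saturated at 20 °C, then sprayed to run-off with compound suspension (acetone/water with 250 ppm Trem 014; 200 ppm ≈ 500 g/ha). After 5 days at 20 °C and 24 h saturation, disease was rated from 0 to 100% control versus untreated.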
# Phytophthora infestans [1] = assay: whole plant or invertebrate; settings: tomato late blight, spray the day before inoculation
# Phytophthora infestans [2] = assay: whole plant or invertebrate; settings: tomato late blight, spray 17 h after inoculation
# [3] = system: Erysiphe graminis f. sp. tritici; assay: Test E: wheat powdery mildew, spray the day before inoculation (disease rating, 100 = 100% disease control); settings: spray the day before inoculation
# In short: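 Wheat seedlings sprayed to run-off with compound suspended in acetone/water 50/50 with 250 ppm Trem 014 (200 ppm equivalent to 500 g/ha); inoculated next day with Erysiphe graminis f. sp. tritici spore dust. Kept 7 days at 20° C, then rated 0–100% disease control versus controls.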
# [4] = compounds without asterisk (not 40 or 10 ppm)
SMILES,"Test B disease rating (100 = 100% disease control, 0 = no disease control) (Plasmopara viticola; tested at 40 ppm)","Test C disease rating (100 = 100% disease control, 0 = no disease control) (Phytophthora infestans [1]; tested at 40 ppm)","Test D disease rating (100 = 100% disease control, 0 = no disease control) (Phytophthora infestans [2]; tested at 40 ppm)","Test E disease rating (100 = 100% disease control, 0 = no disease control) ([3]; tested at 40 ppm)","Test B disease rating (100 = 100% disease control, 0 = no disease control) (Plasmopara viticola; [4])","Test C disease rating (100 = 100% disease control, 0 = no disease control) (Phytophthora infestans [1]; [4])","Test D disease rating (100 = 100% disease control, 0 = no disease control) (Phytophthora infestans [2]; [4])","Test E disease rating (100 = 100% disease control, 0 = no disease control) [3, 4]",also measured
Cc1cc(C(F)(F)F)nn1CC(=O)N1CCC(c2nc(C(=O)N(C)C3c4ccccc4CCC3O)cs2)CC1 (centres unmarked) [compound 194],0%,98%,74%,0%,,,,,
CC(=O)OC1CCc2ccccc2C1N(C)C(=O)c1csc(C2CCN(C(=O)Cn3nc(C(F)(F)F)cc3C)CC2)n1 (centres unmarked) [compound 195],,,,,47%,99%,88%,0%,
COc1cccc2c1CCCC2N(C)C(=O)c1csc(C2CCN(C(=O)Cn3nc(C(F)(F)F)cc3C)CC2)n1 (centres unmarked) [compound 196],97%,100%,99%,0%,,,,,
COc1ccc2c(c1)CCCC2N(C)C(=O)c1csc(C2CCN(C(=O)Cn3nc(C(F)(F)F)cc3C)CC2)n1 (centres unmarked) [compound 197],98%,100%,99%,0%,,,,,
COc1ccc2c(c1)C(N(C)C(=O)c1csc(C3CCN(C(=O)Cn4nc(C(F)(F)F)cc4C)CC3)n1)CCC2 (centres unmarked) [compound 198],99%,100%,99%,0%,,,,,
Cc1cc(C(F)(F)F)nn1CC(=O)N1CCC(c2nc(C(=O)N(C)C3CCC(C)(C)c4ccccc43)cs2)CC1 (centres unmarked) [compound 199],99%,100%,99%,0%,,,,,
Cc1cc(C(F)(F)F)nn1CC(=O)N1CCC(c2nc(C(=O)N(C)C3CCCc4cc(Cl)ccc43)cs2)CC1 (centres unmarked) [compound 201],98%,100%,99%,0%,,,,,
Cc1cc(C(F)(F)F)nn1CC(=O)N1CCC(c2cc(C(=O)N(C)[C@@H]3CCCc4ccccc43)no2)CC1 [compound 202],,,,,97%,100%,99%,0%,
Cc1cc(C(F)(F)F)nn1CC(=O)N1CCC(c2cc(C(=O)N(C)[C@@H]3CCCc4ccccc43)on2)CC1 [compound 203],,,,,94%,100%,99%,0%,
Cc1cccnc1CC(=O)N1CCC(c2nc(C(=O)N(C)[C@@H]3CCCc4ccccc43)cs2)CC1 [compound 204],,,,,16%,99%,98%,0%,
CN(C(=O)c1csc(C2CCN(C(=O)Cc3ccccn3)CC2)n1)[C@@H]1CCCc2ccccc21 [compound 205],,,,,0%,75%,17%,0%,
Cc1cc(C(F)(F)F)nn1CC(=O)N1CCC(c2nc(C(=O)N(C)C3c4ccccc4CC3O)cs2)CC1 (centres unmarked) [compound 207],,,,,36%,99%,99%,0%,
CC(=O)OC1CCC(N(C)C(=O)c2csc(C3CCN(C(=O)Cn4nc(C(F)(F)F)cc4C)CC3)n2)c2ccccc21 (centres unmarked) [compound 212],97%,100%,99%,0%,,,,,
COC1CCC(N(C)C(=O)c2csc(C3CCN(C(=O)Cn4nc(C(F)(F)F)cc4C)CC3)n2)c2ccccc21 (centres unmarked) [compound 213],99%,100%,99%,0%,,,,,
CN(C(=O)c1csc(C2CCN(C(=O)Cc3cccc(Cl)n3)CC2)n1)[C@@H]1CCCc2ccccc21 [compound 214],,,,,98%,99%,99%,0%,
Cc1cc(C)nc(CC(=O)N2CCC(c3nc(C(=O)N(C)[C@@H]4CCCc5ccccc54)cs3)CC2)c1 [compound 215],,,,,0%,100%,99%,0%,
Cc1cc(C(F)(F)F)nn1CC(=O)N1CCC(c2noc(C(=O)N(C)[C@H](C)c3ccccc3)n2)CC1 [compound 216],,,,,72%,95%,16%,0%,
Cc1cc(C(F)(F)F)nn1CC(=O)N1CCC(n2cc(C(=O)N(C)[C@@H]3CCCc4ccccc43)nn2)CC1 [compound 217],,,,,52%,99%,40%,0%,
CNC(=O)OC1CCC(N(C)C(=O)c2csc(C3CCN(C(=O)Cn4nc(C(F)(F)F)cc4C)CC3)n2)c2ccccc21 (centres unmarked) [compound 219],,,,,69%,99%,99%,0%,
Cc1cc(C(F)(F)F)nn1CC(=O)N1CCC(c2nc(C(=O)N(C)C3CCc4cc(Cl)ccc43)cs2)CC1 (centres unmarked) [compound 221],,,,,,,,,"Test B disease rating (100 = 100% disease control, 0 = no disease control) (Plasmopara viticola; tested at 10 ppm): 77%; Test C disease rating (100 = 100% disease control, 0 = no disease control) (Phytophthora infestans [1]; tested at 10 ppm): 99%; Test D disease rating (100 = 100% disease control, 0 = no disease control) (Phytophthora infestans [2]; tested at 10 ppm): 98%; Test E disease rating (100 = 100% disease control, 0 = no disease control) ([3]; tested at 10 ppm): 0%"
Cc1cc(C(F)(F)F)nn1CC(=O)N1CCC(c2csc(C(=O)N(C)[C@@H]3CCCc4ccccc43)n2)CC1 [compound 223],99%,100%,99%,0%,,,,,
Cc1cc(C(F)(F)F)nn1CC(=O)N1CCN(c2nc(C(=O)N(C)[C@@H]3CCCc4ccccc43)ns2)CC1 [compound 224],93%,100%,99%,0%,,,,,
Cc1cc(C(F)(F)F)nn1CC(=O)N1CCC(c2nc(C(=O)N(C)[C@@H]3CCCc4ccccc43)no2)CC1 [compound 225],,,,,83%,100%,99%,0%,
